In paper PMC5433425 (PeerJ, 2017):
Like-named read-outs stand apart in the source and are kept apart here.

Assays:
E. coli AG100 [1] = experiment: Membrane potential assay (BacLight, DiOC2(3)); details: 80 µM
E. coli AG100 [2] = experiment: Checkerboard synergy assay (MIC of antibiotics/EtBr with efflux inhibitor); assay type: cell-based, Escherichia coli; details: for MIC: Escherichia coli
Method: The assays were performed in triplicate and the MIC value was given as result of at least two concordant values.

E. coli AG100 [3] = experiment: EtBr accumulation by real-time fluorometry; details: EtBr 1 µg/ml + inhibitor 80 µM
E. coli AG100A = experiment: microbe, parasite or virus in culture; assay type: cell-based, Escherichia coli; details: for MIC: Escherichia coli, AG100A
Method: The minimum inhibitory concentrations (MICs) were determined using the broth microdilution method according to the CLSI guidelines ([Clinical and Laboratory Standards Institute, 2014]). […] Two-fold serial dilutions of the compounds were made to achieve the following concentrations: 320 µM–40 µM. The MICs were determined as the lowest concentration at which no visible growth was observed after 18 h of incubation at 37 °C. The assays were performed in triplicate and the MIC value was given as result of at least two concordant values.

E. coli AG100tet = experiment: EtBr efflux by real-time fluorometry; details: 80 µM
Method: Control tubes with only cells and cells with and without 0.4% glucose were included. The fluorescence was measured in a Rotor-Gene 3000 and the data was acquired every 30 s for 30 min at 37 °C. The efflux activity was quantified by comparing the fluorescence data obtained under conditions that promote efflux (presence of glucose and absence of efflux inhibitor) with the data from the control in which the bacteria are under conditions of no efflux (presence of an inhibitor and no energy source).

## CN(C)CCCN1c2ccccc2Sc2ccc(Cl)cc21 [CPZ, chlorpromazine]
E. coli AG100 [1]
  membrane depolarization: similarly to that caused by PQQ4R
E. coli AG100 [2]; AG100, inhibitor 80 μM
  MIC of OFX in presence of the efflux inhibitor: 0.125 µg/mL
  MIC of OXA in presence of the efflux inhibitor: 512 µg/mL
E. coli AG100 [2]; AG100, AG100, inhibitor 160 μM, read-out: MIC of OXA in presence of the efflux inhibitor
  MIC: ≤ 1 µg/mL
E. coli AG100 [2]; AG100, read-out: MIC of EtBr in presence of the efflux inhibitor
  MIC: 25 µg/mL
E. coli AG100 [2]; AG100, read-out: MIC of EtBr in presence of the efflux inhibitor, AG100, inhibitor 40 μM
  MIC: 100 µg/mL
E. coli AG100 [2]; AG100, read-out: MIC of EtBr in presence of the efflux inhibitor, AG100, inhibitor 160 μM
  MIC: ≤ 0.39 µg/mL
E. coli AG100 [2]; AG100, read-out: MIC of OFX in presence of the efflux inhibitor
  MIC: 0.125 µg/mL
E. coli AG100 [2]; AG100, read-out: MIC of OFX in presence of the efflux inhibitor, AG100, inhibitor 160 μM
  MIC: 0.003 µg/mL
E. coli AG100 [2]; AG100, read-out: MIC of OXA in presence of the efflux inhibitor
  MIC: 512 µg/mL
E. coli AG100 [2]; AG100, read-out: MIC of TET in presence of the efflux inhibitor, AG100, inhibitor 40 μM
  MIC: 1 µg/mL
E. coli AG100 [2]; AG100, read-out: MIC of TET in presence of the efflux inhibitor, AG100, inhibitor 80 μM
  MIC: 0.5 µg/mL
E. coli AG100 [2]; AG100, read-out: MIC of TET in presence of the efflux inhibitor, AG100, inhibitor 160 μM
  MIC: ≤ 0.03 µg/mL
E. coli AG100 [3]; cycle 1
  EtBr fluorescence: 6.13
E. coli AG100 [3]; cycle 2
  EtBr fluorescence: 8.192
E. coli AG100 [3]; cycle 3
  EtBr fluorescence: 10.0781
E. coli AG100 [3]; cycle 4
  EtBr fluorescence: 12.1665
E. coli AG100 [3]; cycle 5
  EtBr fluorescence: 14.1022
E. coli AG100 [3]; cycle 6
  EtBr fluorescence: 16.1694
E. coli AG100 [3]; cycle 7
  EtBr fluorescence: 18.3713
E. coli AG100 [3]; cycle 8
  EtBr fluorescence: 20.6676
E. coli AG100 [3]; cycle 9
  EtBr fluorescence: 22.7314
E. coli AG100 [3]; cycle 10
  EtBr fluorescence: 24.8681
E. coli AG100 [3]; cycle 11
  EtBr fluorescence: 27.4474
E. coli AG100 [3]; cycle 12
  EtBr fluorescence: 29.5933
E. coli AG100 [3]; cycle 13
  EtBr fluorescence: 31.7973
E. coli AG100 [3]; cycle 14
  EtBr fluorescence: 34.5154
E. coli AG100 [3]; cycle 15
  EtBr fluorescence: 36.8928
E. coli AG100 [3]; cycle 16
  EtBr fluorescence: 39.2786
E. coli AG100 [3]; cycle 17
  EtBr fluorescence: 41.9426
E. coli AG100 [3]; cycle 18
  EtBr fluorescence: 44.0663
E. coli AG100 [3]; cycle 19
  EtBr fluorescence: 46.4485
E. coli AG100 [3]; cycle 20
  EtBr fluorescence: 49.5818
E. coli AG100 [3]; cycle 21
  EtBr fluorescence: 51.5786
E. coli AG100 [3]; cycle 22
  EtBr fluorescence: 54.5618
E. coli AG100 [3]; cycle 23
  EtBr fluorescence: 56.7461
E. coli AG100 [3]; cycle 24
  EtBr fluorescence: 59.3586
E. coli AG100 [3]; cycle 25
  EtBr fluorescence: 62.2682
E. coli AG100 [3]; cycle 26
  EtBr fluorescence: 64.3897
E. coli AG100 [3]; cycle 27
  EtBr fluorescence: 67.0371
E. coli AG100 [3]; cycle 28
  EtBr fluorescence: 69.6952
E. coli AG100 [3]; cycle 29
  EtBr fluorescence: 72.3896
E. coli AG100 [3]; cycle 30
  EtBr fluorescence: 75.3315
E. coli AG100A; AG100A (pump-deficient strain)
  reduction in TET MIC: 4 fold
E. coli AG100A; read-out: MIC of EtBr in presence of the efflux inhibitor
  MIC: 0.39 µg/mL
E. coli AG100A; read-out: MIC of OFX in presence of the efflux inhibitor
  MIC: 0.015 µg/mL
E. coli AG100A; read-out: MIC of OXA in presence of the efflux inhibitor
  MIC: 2 µg/mL
E. coli AG100A; read-out: MIC of TET in presence of the efflux inhibitor
  MIC: 0.125 µg/mL
E. coli AG100tet; cycle 1, + glucose
  Fluorescence raw data, Channel Cycling A.530/585hp: 6.9729
E. coli AG100tet; cycle 1, without glucose
  Fluorescence raw data, Channel Cycling A.530/585hp: 6.962
E. coli AG100tet; cycle 2, + glucose
  Fluorescence raw data, Channel Cycling A.530/585hp: 6.777
E. coli AG100tet; cycle 2, without glucose
  Fluorescence raw data, Channel Cycling A.530/585hp: 6.801
E. coli AG100tet; cycle 3, + glucose
  Fluorescence raw data, Channel Cycling A.530/585hp: 6.512
E. coli AG100tet; cycle 3, without glucose
  Fluorescence raw data, Channel Cycling A.530/585hp: 6.754
E. coli AG100tet; cycle 4, without glucose
  Fluorescence raw data, Channel Cycling A.530/585hp: 6.877
E. coli AG100tet; cycle 5, without glucose
  Fluorescence raw data, Channel Cycling A.530/585hp: 7.026
E. coli AG100tet; cycle 6, without glucose
  Fluorescence raw data, Channel Cycling A.530/585hp: 7.1507
E. coli AG100tet; cycle 7, without glucose
  Fluorescence raw data, Channel Cycling A.530/585hp: 7.108
E. coli AG100tet; cycle 8, without glucose
  Fluorescence raw data, Channel Cycling A.530/585hp: 7.075
E. coli AG100tet; cycle 9, + glucose
  Fluorescence raw data, Channel Cycling A.530/585hp: 6.252
E. coli AG100tet; cycle 9, without glucose
  Fluorescence raw data, Channel Cycling A.530/585hp: 7.246
E. coli AG100tet; cycle 10, + glucose
  Fluorescence raw data, Channel Cycling A.530/585hp: 6.3883
E. coli AG100tet; cycle 10, without glucose
  Fluorescence raw data, Channel Cycling A.530/585hp: 7.315
E. coli AG100tet; cycle 11, + glucose
  Fluorescence raw data, Channel Cycling A.530/585hp: 6.371
E. coli AG100tet; cycle 11, without glucose
  Fluorescence raw data, Channel Cycling A.530/585hp: 7.397
E. coli AG100tet; cycle 12, + glucose
  Fluorescence raw data, Channel Cycling A.530/585hp: 6.405
E. coli AG100tet; cycle 12, without glucose
  Fluorescence raw data, Channel Cycling A.530/585hp: 7.4437
E. coli AG100tet; cycle 13, + glucose
  Fluorescence raw data, Channel Cycling A.530/585hp: 6.558
E. coli AG100tet; cycle 13, without glucose
  Fluorescence raw data, Channel Cycling A.530/585hp: 7.742
E. coli AG100tet; cycle 14, + glucose
  Fluorescence raw data, Channel Cycling A.530/585hp: 6.536
E. coli AG100tet; cycle 14, without glucose
  Fluorescence raw data, Channel Cycling A.530/585hp: 7.795
E. coli AG100tet; cycle 15, + glucose
  Fluorescence raw data, Channel Cycling A.530/585hp: 6.4669
E. coli AG100tet; cycle 15, without glucose
  Fluorescence raw data, Channel Cycling A.530/585hp: 7.899
E. coli AG100tet; cycle 16, + glucose
  Fluorescence raw data, Channel Cycling A.530/585hp: 6.613
